“Also recorded” adds a separate entry of the source. One block for each molecule: values may come before it.
Legend:
[1] = Drug release from loaded Silastic tubing in culture media (LC-MS/MS); type: physicochemical; details: for drug transfer from Silastic tubing: Silastic tubing depot approach
Description: (§1) Each sealed (10 cm) tube was immersed into a 10 cm culture tube containing 5 mL culture media (Dulbecco's Modified Eagle's medium (DMEM)+10% fetal bovine serum (FBS)+penicillin and streptomycin) approximating interstitial tissue surrounding the breast tissue. These tubes were set on a rocker in an incubator at 37° C. for 1, 2, 5, 10, 15, 21 and 30 days. After each time point media was collected and stored at −80° C. for further analysis for western blotting, viability/proliferation assay by MTS (3-(4,5-dimethylthiazol-2-yl)-5-(3-carboxymethoxyphenyl)-2-(4-sulfophenyl)-2H-tetrazolium) and quantitation by liquid chromatography-tandem mass spectrometry (LC-MS/MS). Additional iteration was to perform repeated washes on the same sealed tube and collect the culture medium at days 1, 2, 5, 10, 15, 21, and 30.
(§2) A validated LC-MS/MS method was used for quantitation of fulvestrant. Sample was prepared by liquid-liquid extraction procedures with n-hexane-isopropanol (90:10, v/v). Extracts were concentrated (using a nitrogen stream at room temperature) and […] with 2 volumes of mobile phase buffer, and injected into a Sciex ultra performance liquid chromatorgraphy (UPLC) coupled with a Sciex API 5000™ triple quadrupole mass spectrometer. Data was acquired and analyzed by Analyst® MS software.
Media was harvested semi-weekly (84 hrs).

[2] = system: progesterone receptor (PgR) mRNA; experiment: Progesterone receptor mRNA by qRT-PCR in MCF7 cells treated with medium containing released E2; type: cell-based; details: estradiol released from Silastic tubing into culture medium, MCF7 cells treated 24 hours
Description: The effect of estradiol released from Silastic® tubing loaded with estradiol and placed in culture medium was monitored, using conditions similar to that described in Example 2.
FIG. 23: Drug (E2) was loaded into 3 independent silastic tubes, dried, and sealed before incubating them in tissue culture medium for the indicated number of days. The tubes were then removed and MCF7 cells were treated with the medium. For the E2 experiment, MCF7 cells were first depleted of E2 by growing for 48 hours in FBS stripped media. Then, after 24 hours of treatment with media containing released E2, cells were harvested and progesterone receptor mRNA was quantified by quantitative real-time (qRT)-polymerase chain reaction (PCR) using TaqMan® probes from Applied Biosystems. As controls, MCF7 cells untreated and treated directly with 10 nM E2 were run.

[3] = system: MCF7 ER-positive breast cancer cells; experiment: MTS viability/proliferation assay of MCF7 cells; type: cell-based
Description: as §1
(§3) MCF-7 culture were propagated and seeded in 6 cm dishes at 300,000 cells per dish and allowed to adhere overnight as a monolayer. […] The drug concentrations and biological effects of the drug eluted from specific tubes were evaluated by Mass spectroscopy, Western Blot analysis and antiproliferative methods after exposure for 3 days.
At the end of the exposure, medium was replaced by MTS dye diluted (200 μL per well) in culture medium and incubated for up to 2 hours at 37° C. Optical density (490 nm) at the end of the time points (1, 1.5 and 2 hours) was measure and plotted as a ratio of absorbance (day/untreated).
Media containing tubing released drug at respective times was then added to cultured MCF7 ER-positive breast cancer cells and grown for 72 hours.
(§4) The medium was then used to culture MCF7 cells for 72 h, and the cells were assayed for proliferation by MTS assay (Panel A) and harvested for protein and western blotted for ER and PR expression (Panel B).

[4] = target: T1, estrogen receptor (ER) (Homo sapiens, UniProt P03372); experiment: Western blot for ER and PR expression in MCF7 cells; type: cell-based
T1 sequence (P03372 1-595): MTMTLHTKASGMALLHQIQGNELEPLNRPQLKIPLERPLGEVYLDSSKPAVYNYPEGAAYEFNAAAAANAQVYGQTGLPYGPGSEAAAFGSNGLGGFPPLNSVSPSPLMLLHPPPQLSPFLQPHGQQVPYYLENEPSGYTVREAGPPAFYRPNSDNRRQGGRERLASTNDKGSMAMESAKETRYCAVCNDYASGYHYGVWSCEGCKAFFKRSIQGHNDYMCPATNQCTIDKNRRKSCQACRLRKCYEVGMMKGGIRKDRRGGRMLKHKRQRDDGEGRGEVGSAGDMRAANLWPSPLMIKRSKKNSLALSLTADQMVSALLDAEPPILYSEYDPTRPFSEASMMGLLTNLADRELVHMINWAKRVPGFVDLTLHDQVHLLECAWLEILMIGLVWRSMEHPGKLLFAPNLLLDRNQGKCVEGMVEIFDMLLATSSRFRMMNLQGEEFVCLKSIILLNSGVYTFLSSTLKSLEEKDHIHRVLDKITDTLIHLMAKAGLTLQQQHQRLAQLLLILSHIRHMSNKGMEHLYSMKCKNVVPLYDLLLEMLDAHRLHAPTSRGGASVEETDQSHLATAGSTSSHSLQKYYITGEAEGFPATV
Description: as §1, §3, §4

[5] = Drug release from loaded Silastic tubing in saline (LC-MS/MS); type: physicochemical
Description: Every 84 hours the saline was collected and replaced with fresh saline.
as §2
Every 84 hours, saline was collected and replaced with fresh saline. Fulvestrant was quantified in collected saline by liquid chromatography mass spectrometry.

[6] = Fulvestrant level in blood and mammary tissue of mice with Silastic implant; type: in vivo, CD-1 female mice; details: 2 cm RX50 silastic tubing, 0.076 mg/cm dry fulvestrant, adjacent to inguinal mammary fat pad
Description: (§5) Mice were monitored for body weight loss, activity, adequate grooming, and general behavior daily for the first week, followed by alternate days up to […]. Mice were euthanized and blood and organs were collected after 1, 2, 3, 4, 6 and 9 weeks (FIGS. 21 and 22).
Blood from anaesthetized CD-1 female mice were collected in Vacutainer® tubes coated with K2 ethylenediaminetetraacetic acid (EDTA) via cardiac puncture. Plasma was separated by centrifugation at 6,000×g for 10 minutes and stored at −80° C. […] Harvested tissue was homogenized in saline on ice and then subjected to liquid-liquid phase extraction and evaluated for their levels of fulvestrant by LC-MS/MS as described above.
After the indicated number of weeks the mice were euthanized and tissue was harvested.

[7] = Visual examination of organs for overt pathology in implanted mice; type: in vivo, CD-1 female mice; details: Silastic depot with dry fulvestrant implanted subcutaneously, 9 week period
Description: as §5

[8] = distribution coefficient between water and octanol; cited from earlier work
[9] = in 10% ethanol, 10% benzyl alcohol, 15% benzyl benzoate, and to 100% with castor oil (Faslodex®); cited from earlier work
[10] = MCF7 cells treated directly with 100 nM fulvestrant (positive control)

- drug transfer from Silastic tubing [1]: amenable to drug transfer
Molecule: 4-hydroxytamoxifen

Molecule: C[C@]12CC[C@@H]3c4ccc(O)cc4CC[C@H]3[C@@H]1CC[C@@H]2O [estradiol]
- duration of sustained increase in progesterone receptor (PgR) mRNA expression [2]: up to 15 days

- duration of consistent weekly fulvestrant release, as measured by ER and PR down regulation ([4]; weekly release from Silastic tubing, cell culture models): more than 4 weeks
- duration of sustained release into culture medium ([1]; fulvestrant loaded Silastic tubing, media harvested semi-weekly (84 hrs), LC-MS/MS): up to 22 weeks
- extrapolated duration of release ([5]; based on rate of release and amount of fulvestrant in the device): exceeds 10 years
- duration of steady release ([5]; saline, 37 C): exceeding 7 months
- rate of fulvestrant released ([5]; saline, 37 C, after 5 weeks, average): 7.77 ng/cm tubing*day
- fulvestrant in mammary tissue ([6]; all mice): significant fulvestrant was detectable
- fulvestrant in blood ([6]; weeks 1-9, all but one mouse at week 4): < 4 nM
- overt pathology of organs (color, size, general condition) [7]: none
Molecule: C[C@]12CC[C@@H]3c4ccc(O)cc4C[C@@H](CCCCCCCCC[S+]([O-])CCCC(F)(F)C(F)(F)F)[C@H]3[C@@H]1CC[C@@H]2O (stereo partly shown) [fulvestrant]
- cell growth [3, 10]: arrest cell growth
- tube equilibration time sufficient for growth inhibition and ER down regulation comparable to 100 nM fulvestrant ([3]; Silastic tubing 9 cm, 0.076 mg/cm dry fulvestrant, in culture media): 2 to 5 days
- antiproliferative effects ([3]; fulvestrant added directly, concentration curves 10-50 nM and up to 10 μM, 72 hours): sufficient to block estrogen receptor signaling and proliferation
- growth inhibition and estrogen receptor down regulation ([3]; medium with fulvestrant released from Silastic tubing (0.076 mg/cm dry fulvestrant), MCF7 cells 72 h): comparable to cells directly treated with fulvestrant (100 nM); also recorded: sufficient to abrogate ER signaling and reduce cell proliferation
- ER expression [4, 10]: sufficient to down regulate ER expression
- log D [8]: around 8.47
- solubility [9]: up to 50 mg/mL

- drug transfer from Silastic tubing [1]: amenable to drug transfer
Molecule: O=C(c1ccc(OCCN2CCCCC2)cc1)c1c(-c2ccc(O)cc2)sc2cc(O)ccc12 [raloxifene]
- log D [8]: around 5.406
